Source: US20070134731A1, “PROTEOMICS BASED METHOD FOR TOXICOLOGY TESTING” (priority 2002, published 2007)
Entries after “also recorded” stand apart in the source; their conditions may differ.

Key:
[1] = test system: rats; assay: toxicant exposure of rats; modified proteins isolated from serum (immunoaffinity, 2D gel electrophoresis, LC/MS); format: in vivo; details: for modified proteins found in serum of treated animals, not found in the control group: rat serum, CCl4 0.1 and 1.0 mL/kg or ozone 0.8 and 2.0 ppm, specimens at 0-24 hours, anti-nitrotyrosine, chlorotyrosine, methionine sulfoxide resins, LC/MS
Experimental: Experimental groups consisted of three experimental and two control animals at each dose and specimens were collected at zero, one, two, four, eight, sixteen and twenty-four hours following ozone administration. In another experimental series, CCl4 was administered at a level of 0.1 and 1.0 mL/kg to rats to induce liver damage, and specimens were collected at time points as described above. […] Therefore, these high abundance proteins are preferably eliminated from serum samples prior to further processing.
In this experimental series, the specimens were purified by passing them over affinity resins containing antibodies against whole rat serum proteins and collecting the eluate. This purification methodology was effective in removing a significant amount of the high abundant serum proteins, which typically have a molecular weight in the range of 49-80 kiloDalton. […] Therefore, it was determined that concentration of the sample could be carried out very effectively by a process of molecular weight sieving which retained low molecular weight proteins (typically 50 kiloDalton and below) and excluded high molecular weight proteins. Such sieving was effectively accomplished utilizing a Superdex 75 column with a sample loading volume of 10% of the bed volume. Processes of this type have the advantage of being cheaper and faster than affirity resin based processes.
Once the concentration of high abundance serum proteins was decreased, the tissue proteins were purified from serum by immunoaffinity resins using antibodies to nitrotyrosine, chlorothyosine and methionine sulfoxide. […] Samples of interest were excised from the gel and those with sufficient concentration were analyzed by LC/MS.

[2] = test system: rats; details: in rats; cited from earlier work

Compound	modified proteins found in serum of treated animals, not found in the control group [1]	organ toxicity [2]	organ damage ([1]; rats breathing ozone at 0.8 and 2.0 ppm)
ClC(Cl)(Cl)Cl [CCl4, carbon tetrachloride]	three out of the seven peptides from the CCl4 group were associated with mitochondria; also recorded: peroxiredoxin	known hepatotoxicant	
O=C1CCC(=O)N1c1cc(Cl)cc(Cl)c1 [NDPS, N-(3,5-dichlorophenyl) succinimide]		toxic to the kidney	
O=[O+][O-] [ozone]	four proteins of interest were found	toxic to the lungs	Lung damage was produced
